The source of these data is patent US20230365584A1, “HETEROCYCLIC PERICONDENSED CDC7 KINASE INHIBITORS FOR THE TREATMENT OF CANCER” (SCHRÖDINGER, INC., priority 2020, published 2023).

In this test the target is Full length human CDC7 protein co-expressed with DBF4 (Homo sapiens (Human), UniProt O00311). Description: CDC7 kinase biochemical assay (ADP-Glo, PDKtide substrate). The conditions noted are these: 0.1 nM CDC7/DBF4, 1 uM ATP, 10 uM PDKtide, 4 h. As for the experimental part:
CDC7 Kinase Biochemical Assay Protocol:
Full length human CDC7 protein co-expressed with DBF4 was purchased from SignalChem (China). CDC7 kinase activity was determined with PDKtide (SignalChem) as a substrate and by measuring ADP production using the ADP-Glo™ Kinase Assay kit (Promega) following the manufacturers instructions. The kinase reaction was performed using the following conditions: Buffer: 40 mM Tris pH 7.5, 20 mM MgCl2, 0.1 mg/ml BSA and 50 uM DTT. Final reaction mix contained 0.1 nM CDC7/DBF4, 1 uM ATP and 10 uM PDKtide. The kinase reaction time was 4 h. The ADP-Glo signal was measured using an EnVision plate reader (PerkinELmer).
Percent inhibition of CDC7 kinase activity was calculated based on the following formula:
[formula] • Ssample: the signal of compounds • SHigh Ctrl: the signal of high control (DMSO) • SLow Ctrl: the signal of low control (positive control CDC7 inhibitor)
For orientation: ADP-Glo turns the ADP formed in a reaction into a luminescent signal.

Where a name gives a salt, the structure may show the parent alone.

Usually IC50 stands for the concentration that gives 50% inhibition. A lower IC50 goes with inhibition by little substance.

Sequence of Full length human CDC7 protein co-expressed with DBF4 (O00311 whole entry): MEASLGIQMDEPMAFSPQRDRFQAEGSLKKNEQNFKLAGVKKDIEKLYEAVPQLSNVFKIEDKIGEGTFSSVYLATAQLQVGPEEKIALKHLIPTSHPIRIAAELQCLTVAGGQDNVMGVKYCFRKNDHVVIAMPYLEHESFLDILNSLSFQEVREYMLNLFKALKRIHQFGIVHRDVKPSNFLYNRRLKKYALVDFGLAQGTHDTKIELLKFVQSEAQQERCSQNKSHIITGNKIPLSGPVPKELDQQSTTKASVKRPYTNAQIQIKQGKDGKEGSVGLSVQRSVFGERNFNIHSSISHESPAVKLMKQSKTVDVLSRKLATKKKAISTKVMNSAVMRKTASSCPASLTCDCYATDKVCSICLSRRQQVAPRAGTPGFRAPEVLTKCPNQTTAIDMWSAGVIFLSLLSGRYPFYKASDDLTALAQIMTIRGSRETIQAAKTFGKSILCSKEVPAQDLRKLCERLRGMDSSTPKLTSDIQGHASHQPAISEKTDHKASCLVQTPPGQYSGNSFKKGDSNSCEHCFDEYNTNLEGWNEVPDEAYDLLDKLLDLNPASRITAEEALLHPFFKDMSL
Sequence of Full length human CDC7 protein co-expressed with DBF4 (Q9UBU7 whole entry partner): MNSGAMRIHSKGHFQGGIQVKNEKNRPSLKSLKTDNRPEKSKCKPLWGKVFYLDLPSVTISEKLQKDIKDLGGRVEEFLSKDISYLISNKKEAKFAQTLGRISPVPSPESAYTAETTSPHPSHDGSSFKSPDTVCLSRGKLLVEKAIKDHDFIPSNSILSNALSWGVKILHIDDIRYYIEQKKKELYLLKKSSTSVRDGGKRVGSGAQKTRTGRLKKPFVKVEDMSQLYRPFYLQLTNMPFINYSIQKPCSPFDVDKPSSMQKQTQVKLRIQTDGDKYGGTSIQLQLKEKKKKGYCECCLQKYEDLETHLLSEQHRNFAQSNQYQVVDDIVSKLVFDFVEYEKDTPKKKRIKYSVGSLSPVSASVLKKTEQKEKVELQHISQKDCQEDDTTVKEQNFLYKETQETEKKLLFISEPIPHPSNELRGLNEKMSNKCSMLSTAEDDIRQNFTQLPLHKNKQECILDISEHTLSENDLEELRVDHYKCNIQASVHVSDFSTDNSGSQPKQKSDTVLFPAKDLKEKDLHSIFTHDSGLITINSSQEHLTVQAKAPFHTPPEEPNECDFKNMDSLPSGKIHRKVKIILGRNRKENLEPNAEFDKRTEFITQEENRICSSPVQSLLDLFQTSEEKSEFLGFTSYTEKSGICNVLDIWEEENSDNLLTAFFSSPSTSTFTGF

`CC1Cc2c(CN3CC(F)C3)[nH]c(=O)c3sc(-c4cn[nH]c4)c(c23)O1` (stereo in doubt) [Example 67, (R)-6-((3-fluoroazetidin-1-yl)methyl)-4-methyl-2-(1H-pyrazol-4-yl)-5,7-dihydro-3-oxa-1-thia-7-azaacenaphthylen-8(4H)-one] displayed an IC50 below 1 nM.

On to `NCc1[nH]c(=O)c2sc(-c3ccncc3)c3c2c1CCCO3` [Example 15, 5-(aminomethyl)-1-(pyridin-4-yl)-4,6,7,8-tetrahydro-3H-9-oxa-2-thia-4-azabenzo[cd]azulen-3-one;hydrochloride], for which the concentration for half-maximal inhibition (IC50) is 1 to 10 nM. The figure for `O=c1[nH]c(CN2CC[C@H](O)C2)c2c3c(c(-c4ccncc4)sc13)OCCC2` [Example 10, (S)-5-((3-hydroxypyrrolidin-1-yl)methyl)-1-(pyridin-4-yl)-4,6,7,8-tetrahydro-3H-9-oxa-2-thia-4-azabenzo[cd]azulen-3-one] is 1 to 10 nM; for `COC(=O)Cc1[nH]c(=O)c2sc(-c3cn[nH]c3)c3c2c1CCCO3` [Example 76, methyl 2-(3-oxo-1-(1H-pyrazol-4-yl)-4,6,7,8-tetrahydro-3H-9-oxa-2-thia-4-azabenzo[cd]azulen-5-yl)acetate] it is below 1 nM; for `O=c1[nH]c(Cn2cccn2)c2c3c(c(-c4ccncn4)sc13)OCCC2` [Example 19, 7-(pyrazol-1-ylmethyl)-2-pyrimidin-4-yl-12-oxa-3-thia-6-azatricyclo[6.4.1.0^4,13]trideca-1,4(13),7-trien-5-one] it is below 1 nM.

In the case of `CC[C@](C)(O)c1[nH]c(=O)c2sc(-c3c[nH]nc3C)c3c2c1CCCO3` (single isomer, unassigned) [Example 73], the IC50 was at least 10 nM.

In the case of `C[C@H](c1[nH]c(=O)c2sc(-c3cn[nH]c3)c3c2c1CCCO3)n1ccnn1` (single isomer, unassigned) [Example 49], the IC50 is below 1 nM. Next, `C[C@@H](O)c1[nH]c(=O)c2sc(-c3cn[nH]c3)c3c2c1CCCO3` (single isomer, unassigned) [Example 33]: below 1 nM; `COc1ccc(CNCc2[nH]c(=O)c3sc(-c4ccncc4)c4c3c2CCCO4)cc1` [Example 16, 5-(((4-methoxybenzyl)amino)methyl)-1-(pyridin-4-yl)-4,6,7,8-tetrahydro-3H-9-oxa-2-thia-4-azabenzo[cd]azulen-3-one]: at least 10 nM.

In the case of `CC(C)(C)OC(=O)NCc1[nH]c(=O)c2sc(-c3ccncc3)c3c2c1CCCO3` [Example 14, tert-butyl ((3-oxo-1-(pyridin-4-yl)-4,6,7,8-tetrahydro-3H-9-oxa-2-thia-4-azabenzo[cd]azulen-5-yl)methyl)carbamate], the IC50 is 1 to 10 nM. The figure for `CC(NC1CCC1)c1[nH]c(=O)c2sc(-c3cn[nH]c3)c3c2c1CCCO3` (stereo not shown) [Example 34] is below 1 nM; for `C[C@H]1Cc2c(C(C)(C)O)[nH]c(=O)c3sc(-c4cn[nH]c4)c(c23)O1` (single isomer, unassigned) [Example 61] it is below 1 nM; for `C[C@@H]1Cc2c(C(C)(C)O)[nH]c(=O)c3sc(-c4cn[nH]c4)c(c23)O1` (single isomer, unassigned) [Example 62] it is below 1 nM.

As to `Cc1[nH]c(=O)c2sc(-c3cn[nH]c3)c3c2c1CCO3` [Example 3, 6-methyl-2-(1H-pyrazol-4-yl)-5,7-dihydro-3-oxa-1-thia-7-azaacenaphthylen-8(4H)-one], the 50% inhibitory concentration (IC50) was 1 to 10 nM. Take `CC1Cc2c(CN3CC[C@H](F)C3)[nH]c(=O)c3sc(-c4cn[nH]c4)c(c23)O1` (stereo in doubt) [Example 69, (S)-6-(((S)-3-fluoropyrrolidin-1-yl)methyl)-4-methyl-2-(1H-pyrazol-4-yl)-5,7-dihydro-3-oxa-1-thia-7-azaacenaphthylen-8(4H)-one]: the half-maximal inhibitory concentration (IC50) was below 1 nM. Consider `CC(c1[nH]c(=O)c2sc(-c3cn[nH]c3)c3c2c1CCCO3)n1nccn1` (racemic) [Example 48, 2-(1H-pyrazol-4-yl)-7-[1-(triazol-2-yl)ethyl]-12-oxa-3-thia-6-azatricyclo[6.4.1.0^4,13] trideca-1,4(13),7-trien-5-one], for which the concentration for half-maximal inhibition (IC50) was below 1 nM. Next, `CC[C@](C)(O)c1[nH]c(=O)c2sc(-c3ccncc3)c3c2c1CCCO3` (single isomer, unassigned) [Example 71]: below 1 nM. On to `C[C@@](O)(c1[nH]c(=O)c2sc(-c3cn[nH]c3)c3c2c1CCCO3)C1CC1` (single isomer, unassigned) [Example 59], for which the IC50 was below 1 nM. Next, `O=c1[nH]c(CN2CC[C@H](O)C2)c2c3c(c(-c4cn[nH]c4)sc13)OCCC2` [Example 11, (S)-5-((3-hydroxypyrrolidin-1-yl)methyl)-1-(1H-pyrazol-4-yl)-4,6,7,8-tetrahydro-3H-9-oxa-2-thia-4-azabenzo[cd]azulen-3-one]: below 1 nM; `O=c1[nH]c(C2(O)CCCC2)c2c3c(c(-c4cn[nH]c4)sc13)OCCC2` [Example 85, 5-(1-hydroxycyclopentyl)-1-(1H-pyrazol-4-yl)-4,6,7,8-tetrahydro-3H-9-oxa-2-thia-4-azabenzo[cd]azulen-3-one]: below 1 nM. The figure for `C[C@H]1Cc2c(CN3CCC3)[nH]c(=O)c3sc(-c4cn[nH]c4)c(c23)O1` (single isomer, unassigned) [Example 63] is below 1 nM; for `C[C@@H]1Cc2c(CN3CCC(F)(F)C3)[nH]c(=O)c3sc(-c4cn[nH]c4)c(c23)O1` (single isomer, unassigned) [Example 65] it is below 1 nM. The figure for `COC[C@H](OC)c1[nH]c(=O)c2sc(-c3cn[nH]c3)c3c2c1CCCO3` (single isomer, unassigned) [Example 40] is below 1 nM; for `Cc1[nH]c(=O)c2sc(-c3ccncc3)c3c2c1CCO3` [Example 2, 6-methyl-2-(pyridin-4-yl)-5,7-dihydro-3-oxa-1-thia-7-azaacenaphthylen-8(4H)-one] it is below 1 nM; for `C[C@@H]1Cc2c(CN3CCC3)[nH]c(=O)c3sc(-c4cn[nH]c4)c(c23)O1` (single isomer, unassigned) [Example 64] it is below 1 nM.

Compound `CC(C)(O)c1[nH]c(=O)c2sc(-c3ccncc3)c3c2c1CCCO3` [Example 29, 5-(2-hydroxypropan-2-yl)-1-(pyridin-4-yl)-4,6,7,8-tetrahydro-3H-9-oxa-2-thia-4-azabenzo[cd]azulen-3-one] registered a 50% inhibitory concentration (IC50) below 1 nM. Next, `O=C(c1[nH]c(=O)c2sc(-c3cn[nH]c3)c3c2c1CCCO3)N1CC(O)C1` [Example 53, 5-(3-hydroxyazetidine-1-carbonyl)-1-(1H-pyrazol-4-yl)-4,6,7,8-tetrahydro-3H-9-oxa-2-thia-4-azabenzo[cd]azulen-3-one]: 1 to 10 nM; `C[C@@H](c1[nH]c(=O)c2sc(-c3cn[nH]c3)c3c2c1CCCO3)n1cc(C#N)cn1` (single isomer, unassigned) [Example 26]: below 1 nM. For the compound `Cc1n[nH]cc1-c1sc2c(=O)[nH]c(C)c3c2c1OCCC3` [Example 6, 5-methyl-1-(3-methyl-1H-pyrazol-4-yl)-4,6,7,8-tetrahydro-3H-9-oxa-2-thia-4-azabenzo[cd]azulen-3-one], the IC50 lay in the range of 1 to 10 nM. `N#CCc1[nH]c(=O)c2sc(-c3cn[nH]c3)c3c2c1CCCO3` [Example 75, 2-(3-oxo-1-(1H-pyrazol-4-yl)-4,6,7,8-tetrahydro-3H-9-oxa-2-thia-4-azabenzo[cd]azulen-5-yl)acetonitrile] returned an IC50 below 1 nM. For `C[C@H](O)c1[nH]c(=O)c2sc(-c3cn[nH]c3)c3c2c1CCCO3` (single isomer, unassigned) [Example 32], the IC50 is below 1 nM. Next, `Cc1[nH]c(=O)c2sc(-c3cn[nH]c3)c3c2c1CC(F)(F)CO3` [Example 43, 10,10-difluoro-7-methyl-2-(1H-pyrazol-4-yl)-12-oxa-3-thia-6-azatricyclo[6.4.1.0^4,13]trideca-1,4(13),7-trien-5-one]: below 1 nM; `C[C@@H](c1[nH]c(=O)c2sc(-c3cn[nH]c3)c3c2c1CCCO3)n1ccnn1` (single isomer, unassigned) [Example 50]: below 1 nM.

With `Cc1n[nH]cc1-c1sc2c(=O)[nH]c(C)c3c2c1OCC3` [Example 4, 6-methyl-2-(3-methyl-1H-pyrazol-4-yl)-5,7-dihydro-3-oxa-1-thia-7-azaacenaphthylen-8(4H)-one], the IC50 was below 1 nM.

`COC[C@H](c1[nH]c(=O)c2sc(-c3cn[nH]c3)c3c2c1CCCO3)n1cccn1` (single isomer, unassigned) [Example 35] gave an IC50 below 1 nM. Next, `C[C@H]1Cc2c(CN3CC(O)C3)[nH]c(=O)c3sc(-c4cn[nH]c4)c(c23)O1` (single isomer, unassigned) [Example 79]: below 1 nM; `C[C@@H]1CCN1Cc1[nH]c(=O)c2sc(-c3cn[nH]c3)c3c2c1C[C@H](C)O3` (single isomer, unassigned) [Example 84]: below 1 nM; `COC[C@@H](OC)c1[nH]c(=O)c2sc(-c3cn[nH]c3)c3c2c1CCCO3` (single isomer, unassigned) [Example 39]: below 1 nM.

Consider `O=c1[nH]c(CN2CC(O)C2)c2c3c(c(-c4cn[nH]c4)sc13)OCCC2` [Example 78, 7-[(3-hydroxyazetidin-1-yl)methyl]-2-(1H-pyrazol-4-yl)-12-oxa-3-thia-6-azatricyclo [6.4.1.0^4,13]trideca-1,4(13),7-trien-5-one], for which the half-inhibitory concentration (IC50) is below 1 nM. `COC[C@H](c1[nH]c(=O)c2sc(-c3cn[nH]c3)c3c2c1CCCO3)N1CCC(F)(F)C1` (single isomer, unassigned) [Example 37]: the concentration for half-maximal inhibition (IC50) was in the range of 1 to 10 nM.
